Measured values published in the NIST ThermoML archive (doi:10.1021/je401120a).

Experiment: refractive index (Na D-line) (dimensionless); xn = mol fraction of the nth substance listed
Settings: 101 kPa, Liquid, Standard Abbe refractometry

CCC[n+]1ccccc1.F[B-](F)(F)F [1-propylpyridinium tetrafluoroborate] + CO
refractive index
Settings	293.15 K	303.15 K	313.15 K	323.15 K
x1 = 0.0279	1.34377	1.3399	1.3361	1.33304
x1 = 0.0576	1.35657	1.35319	1.34994	1.34753
x1 = 0.0965	1.36988	1.36693	1.36409	1.36215
x1 = 0.1457	1.38283	1.38006	1.37759	1.37597
x1 = 0.1949	1.39301	1.3903	1.38806	1.38633
x1 = 0.2548	1.4028	1.40001	1.39755	1.39577
x1 = 0.3209	1.41121	1.40839	1.40578	1.40373
x1 = 0.3998	1.4189	1.41592	1.41304	1.41094
x1 = 0.496	1.42595	1.42315	1.42027	1.4177
x1 = 0.5983	1.43176	1.4289	1.42609	1.42341
x1 = 0.6901	1.43601	1.43321	1.43034	1.42772
x1 = 0.8007	1.44014	1.43738	1.43461	1.43193
x1 = 0.8821	1.44265	1.43997	1.43737	1.43464
x1 = 1	1.44588	1.44322	1.44057	1.43792
